Assay results as given in patent US20240010681A1, “PEPTIDES AND METHODS OF USE” (REALTA LIFE SCIENCES, INC., priority 2020, published 2024).

Columns and labels:
[1] = tested on: rat eye; test: Intravitreal safety study, slit lamp examination with modified MacDonald-Shadduck Ocular Grading; assay type: in vivo; design: key to Conjunctiva pathology score / Anterior Chamber pathology score / Iris pathology score / Cornea pathology score: 0: no pathology; 1: slight pathology; 2: moderate pathology; 3/4: severe pathology; conditions: for Anterior Chamber pathology score / Conjunctiva pathology score / Cornea pathology score / Iris pathology score: rats 1-4
Description: Safety study. […] A saline control was administered to the left eye. For this procedure, animals were anesthetized with isoflurane and also received the topical anesthetic proparacaine. Additionally, animals received the topical antibiotic tobramycin after injection. Slit lamp examinations were performed at the indicated time points up to 72 hours post-injection and pathology graded using a modified MacDonald-Shadduck Ocular Grading system with the following scoring scale: 0, no pathology; 1, slight pathology; 2, moderate pathology; 3/4, severe pathology.

[2] = target: ICAM-1/CD54 (Homo sapiens, UniProt P05362); test: ELISA-type plate binding assay, ICAM-1
Chain of ICAM-1/CD54 (P05362 28-532): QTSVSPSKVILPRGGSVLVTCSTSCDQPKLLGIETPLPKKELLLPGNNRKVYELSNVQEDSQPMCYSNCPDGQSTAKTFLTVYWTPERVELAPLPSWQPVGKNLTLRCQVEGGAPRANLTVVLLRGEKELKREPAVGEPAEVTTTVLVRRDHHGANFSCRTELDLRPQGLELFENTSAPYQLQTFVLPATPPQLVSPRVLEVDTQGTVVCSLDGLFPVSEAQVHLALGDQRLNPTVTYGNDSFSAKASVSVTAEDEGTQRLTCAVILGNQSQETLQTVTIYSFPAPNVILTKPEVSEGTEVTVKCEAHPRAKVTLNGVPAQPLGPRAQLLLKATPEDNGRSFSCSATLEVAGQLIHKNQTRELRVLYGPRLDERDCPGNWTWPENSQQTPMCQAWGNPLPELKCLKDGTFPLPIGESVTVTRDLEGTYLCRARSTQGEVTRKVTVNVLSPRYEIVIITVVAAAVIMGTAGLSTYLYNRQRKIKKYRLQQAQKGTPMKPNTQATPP
Description: (§1) To address this hypothesis, an ELISA-type binding assay was developed in which neutrophil ligands (LFA-1 and MAC-1/CR3) and […] cell ligands (ICAM-1/CD54 and ICAM-2/CD102) were bound to microtiter plates. Plates were then incubated with increasing amounts of PA-dPEG24 in 1% gelatin/PBS buffer probed with antibody to the peptide and developed.
To ascertain if PA-dPEG24 could bind ICAM-1 and LFA-1 in plasma, these receptors were coated onto microtiter plates and then incubated with human plasma containing increasing amounts of PA-dPEG24, probed with antibody to the peptide and then developed.

[3] = bolus IV 400 mg/kg; four hours after infusion; male Wistar rats
[4] = tested on: human monocytes; test: C1q-immune complex binding to C1q receptors on human monocytes; assay type: cell-based; conditions: increasing amounts of peptide
Source text: Human monocytes were purified and allowed to adhere to a microtiter plate. […] Absorbance was read at 450 nm. N=3. Bars indicate standard error of the mean (SEM).
Freshly purified human monocytes were allowed to adhere to a 96 well tissue culture plates and nonadherent lymphocytes were removed. […] Unbound immune complexes were washed off and an anti-rabbit HRP antibody was used to detect bound immune complexes, followed by development with TMB and quenching of the reaction with 1N H2SO4 and detection at 450 nm in a plate reader. […] Therefore, without wishing to be bound by theory, this increase has implications for diseases where immune complexes contribute to pathogenesis, including numerous inflammatory ophthalmologic diseases (e.g., uveitis or retinitis), which are situations were increased rapidity of immune complexes can potentially lessen disease severity.

[5] = target: C1q (Homo sapiens, UniProt P02745+P02746+P02747); test: ELISA-type plate binding assay, C1q (positive control ligand)
Chain of C1q (P02745 23-245): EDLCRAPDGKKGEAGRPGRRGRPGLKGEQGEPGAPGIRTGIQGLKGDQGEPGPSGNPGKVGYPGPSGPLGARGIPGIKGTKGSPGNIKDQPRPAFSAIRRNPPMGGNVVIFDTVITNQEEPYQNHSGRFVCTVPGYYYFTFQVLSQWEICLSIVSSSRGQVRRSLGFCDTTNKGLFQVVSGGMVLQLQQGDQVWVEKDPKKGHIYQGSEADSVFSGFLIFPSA
Chain of C1q (P02746 28-253): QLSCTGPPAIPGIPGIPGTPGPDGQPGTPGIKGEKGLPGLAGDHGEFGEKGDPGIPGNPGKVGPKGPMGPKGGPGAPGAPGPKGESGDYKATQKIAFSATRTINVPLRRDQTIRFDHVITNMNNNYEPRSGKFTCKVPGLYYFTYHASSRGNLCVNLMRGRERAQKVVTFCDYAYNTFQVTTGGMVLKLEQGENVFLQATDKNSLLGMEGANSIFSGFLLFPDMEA
Chain of C1q (P02747 29-245): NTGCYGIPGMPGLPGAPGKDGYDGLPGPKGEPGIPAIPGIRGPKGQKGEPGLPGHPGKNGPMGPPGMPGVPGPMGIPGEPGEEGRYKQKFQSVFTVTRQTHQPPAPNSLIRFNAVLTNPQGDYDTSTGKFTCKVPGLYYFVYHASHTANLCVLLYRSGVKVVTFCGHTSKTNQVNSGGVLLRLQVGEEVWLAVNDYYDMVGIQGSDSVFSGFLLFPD

[6] = tested on: free DNA; test: OVA/LPS rat asthma model, free DNA in BALF (PicoGreen); conditions: prophylactic or rescue 160 mg/kg IV; vs asthma rats Days 22-24; not back to baseline
[7] = tested on: human neutrophils; test: Immunofluorescence binding to purified human neutrophils; assay type: cell-based; conditions: 1 mM, 30 minutes
Description: To evaluate binding of PA-dPEG24 to neutrophils, purified human neutrophils were cytospun onto glass slides. PA-dPEG24 (1 mM) was then added to one set of slides for 30 minutes and the slides were subsequently washed with PBS. The cells were then incubated with an antibody to PA-dPEG24 (1:1,000 dilution of Chicken Anti-PIC1) followed by a labeled secondary antibody (1:2,000 dilution of Anti-Chicken, Alexa Fluor 488) and counterstained with DAPI. Cells were then visualized by microscopy. In each case, DAPI staining confirmed that the cells were present on the slides and intact.

[8] = tested on: VEGF binding to VEGFR-2 (KDR); test: VEGF Bioassay (Promega), bioluminescent reporter cells; conditions: increasing peptide concentrations, then human VEGF stimulation
[9] = tested on: inflammatory cytokines and chemokines; test: Plasma cytokine and chemokine levels by xMAP bead-based immunoassay in two-hit ALI rat model; assay type: in vivo
[10] = target: MPO (myeloperoxidase) (Homo sapiens, UniProt P05164); test: ELISA-type plate binding assay, MPO (positive control ligand); conditions: in human plasma
Chain of MPO (myeloperoxidase) (P05164 49-745, species assumed): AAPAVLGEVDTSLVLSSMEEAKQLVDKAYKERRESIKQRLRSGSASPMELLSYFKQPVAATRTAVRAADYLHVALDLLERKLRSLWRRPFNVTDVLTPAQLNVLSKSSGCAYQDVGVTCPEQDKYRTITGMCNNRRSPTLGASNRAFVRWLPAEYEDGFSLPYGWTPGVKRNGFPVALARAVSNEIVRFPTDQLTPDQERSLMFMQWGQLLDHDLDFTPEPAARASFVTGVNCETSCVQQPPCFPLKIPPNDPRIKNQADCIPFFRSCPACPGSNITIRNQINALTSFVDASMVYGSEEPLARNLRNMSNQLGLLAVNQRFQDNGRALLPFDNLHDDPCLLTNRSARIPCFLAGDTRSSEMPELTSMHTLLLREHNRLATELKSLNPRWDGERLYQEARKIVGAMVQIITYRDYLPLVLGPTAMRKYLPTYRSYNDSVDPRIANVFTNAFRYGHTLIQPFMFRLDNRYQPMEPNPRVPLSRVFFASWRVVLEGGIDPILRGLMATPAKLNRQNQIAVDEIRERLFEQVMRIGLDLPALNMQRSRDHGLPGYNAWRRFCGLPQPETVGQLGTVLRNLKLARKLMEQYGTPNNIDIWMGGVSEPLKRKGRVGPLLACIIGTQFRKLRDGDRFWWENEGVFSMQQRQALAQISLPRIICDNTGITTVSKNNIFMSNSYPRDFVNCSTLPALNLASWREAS

[11] = tested on: human umbilical vascular endothelial cell (HUVEC); test: HUVEC basement membrane matrix (Geltrex) culture, LPS-stimulated angiogenesis; assay type: cell-based; conditions: no CellTrace dye, compared with 3-dimensional system
Description: FIG. 36. […] Cells were applied to a layer of basement membrane matrix containing LPS to stimulate angiogenesis and cultured for 18 hours at 37° C. Angiogenesis (nascent tube formation and sprouting) was observed by light microscopy.

[12] = target: MAC-1/CR3 (Homo sapiens, UniProt P05107+P11215); test: ELISA-type plate binding assay, MAC-1; conditions: 1% gelatin/PBS buffer
Chain of MAC-1/CR3 (P05107 23-769, other chains not shown): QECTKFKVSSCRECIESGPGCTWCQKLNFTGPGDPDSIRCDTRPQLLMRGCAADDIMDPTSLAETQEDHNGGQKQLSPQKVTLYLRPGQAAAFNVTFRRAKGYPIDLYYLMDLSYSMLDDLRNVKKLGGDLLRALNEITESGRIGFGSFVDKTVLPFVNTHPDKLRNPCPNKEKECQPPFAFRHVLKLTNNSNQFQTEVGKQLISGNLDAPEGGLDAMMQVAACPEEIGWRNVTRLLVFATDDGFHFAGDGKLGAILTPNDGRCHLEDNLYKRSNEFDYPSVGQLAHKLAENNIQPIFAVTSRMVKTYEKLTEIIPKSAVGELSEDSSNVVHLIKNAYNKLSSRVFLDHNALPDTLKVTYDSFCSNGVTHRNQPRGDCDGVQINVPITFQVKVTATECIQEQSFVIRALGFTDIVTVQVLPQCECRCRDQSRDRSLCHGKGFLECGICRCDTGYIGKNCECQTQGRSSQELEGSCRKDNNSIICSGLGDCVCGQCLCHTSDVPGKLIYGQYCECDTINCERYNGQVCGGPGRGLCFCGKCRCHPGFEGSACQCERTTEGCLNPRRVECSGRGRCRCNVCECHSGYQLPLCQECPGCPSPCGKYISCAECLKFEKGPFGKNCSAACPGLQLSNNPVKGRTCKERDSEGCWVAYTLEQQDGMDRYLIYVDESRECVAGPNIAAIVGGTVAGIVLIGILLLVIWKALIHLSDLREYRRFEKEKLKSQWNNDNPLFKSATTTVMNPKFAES
Description: as §1

[13] = 30 min after IVT 160 mg/ml in 5 microliters
[14] = 2 hour after IVT 160 mg/ml in 5 microliters
[15] = 24 hour after IVT 160 mg/ml in 5 microliters
[16] = 48 hour after IVT 160 mg/ml in 5 microliters
[17] = 72 hour after IVT 160 mg/ml in 5 microliters
[18] = Pre-IVT (baseline), eye assigned to RLS-0071

In the case of `CC[C@H](C)[C@H](N)C(=O)N[C@@H](C)C(=O)N[C@@H](CC(C)C)C(=O)N[C@H](C(=O)N[C@@H](CC(C)C)C(=O)N[C@@H](CCC(=O)O)C(=O)N1CCC[C@H]1C(=O)N[C@H](C(=O)N[C@@H](CS)C(=O)N[C@@H](CS)C(=O)N[C@@H](CCC(N)=O)C(=O)N[C@@H](CCC(=O)O)C(=O)N[C@@H](CCCNC(=N)N)C(=O)N[C@@H](C)C(=O)N[C@@H](C)C(=O)NCCOCCOCCOCCOCCOCCOCCOCCOCCOCCOCCOCCOCCOCCOCCOCCOCCOCCOCCOCCOCCOCCOCCOCCOCCC(=O)O)[C@@H](C)CC)[C@@H](C)CC` [RLS-0071], the “ocular toxicity by slit lamp after intravitreal injection” value ([1]; 160 mg/kg (maximal deliverable dose) as printed, all 4 animals, up to 72 hours) is reported as “No RLS-0071 related toxicity was observed”, the “Anterior Chamber pathology score” value [1, 13] is reported as 0 and the Conjunctiva pathology score [1, 13] is reported as 0. For the same compound, the Cornea pathology score [1, 13] was 0, the Iris pathology score [1, 13] was 0 and the “Anterior Chamber pathology score” value [1, 14] was 0. For the same compound, the Conjunctiva pathology score [1, 14] was 0, the Cornea pathology score [1, 14] was 0 and the Iris pathology score [1, 14] was 0. For the same compound, the “Anterior Chamber pathology score” value [1, 15] was 0, the Conjunctiva pathology score [1, 15] was 0 and the Cornea pathology score [1, 15] was 0. For the same compound, the Iris pathology score [1, 15] was 0, the “Anterior Chamber pathology score” value [1, 16] was 0 and the Conjunctiva pathology score [1, 16] was 0. For the same compound, the Cornea pathology score [1, 16] was 0, the Iris pathology score [1, 16] was 0 and the “Anterior Chamber pathology score” value [1, 17] was 0. For the same compound, the Conjunctiva pathology score [1, 17] was 0, the Cornea pathology score [1, 17] was 0 and the Iris pathology score [1, 17] was 0. For the same compound, the “Anterior Chamber pathology score” value [1, 18] was 0, the Conjunctiva pathology score [1, 18] was 0 and the Cornea pathology score [1, 18] was 0. For the same compound, the Iris pathology score [1, 18] was 0, the “binding to ICAM-1” value ([2]; 1% gelatin/PBS buffer) was “bound endothelial receptor ICAM-1” and the “binding to ICAM-1” value ([2]; in human plasma) was “bound dose-dependently”. For the same compound, the “staining for peptide in kidney tissue” value [3] was “dark staining on the glomerulus and tubules”, the “staining for peptide in liver tissue” value [3] was “discrete staining” and the “amount of C1q detected on monocytes” value [4] was “increased with increasing amounts of PA-dPEG24”. For the same compound, the “level of C1q-immune complexes bound to monocytes” value [4] was “did not reduce the level of C1q-immune complexes”, the “binding to C1q” value ([5]; 1% gelatin/PBS buffer) was “bound PA-dPEG24 in a dose-dependent manner” and the “binding to C1q” value ([5]; in human plasma) was “bound PA-dPEG24 in a dose-dependent manner”. For the same compound, the “free DNA in the BALF” value [6] was “a decrease in free DNA was observed”, the “binding to neutrophil cell surface (immunofluorescence)” value [7] was “fluorescence signal demonstrating direct binding of the peptide to the cell surface” and the “inhibition of VEGF binding to VEGFR-2 and intracellular signaling (luminescence)” value [8] was “dose-dependent inhibition of intracellular signaling”. The “levels of anti-inflammatory Th2 cytokine IL-4” value ([9]; 10 or 160 mg/kg before or 40 or 160 mg/kg after transfusion, FIG. 3) was “did not significantly decrease”, the “other cytokine and growth factor levels (EGF, LIX, VEGF, Leptin, GRO, Fractalkine, GM-CSF, Eotaxin, G-CSF)” value ([9]; 10 or 160 mg/kg before or 40 or 160 mg/kg after transfusion, FIG. 4) was “either significant reduction or a trend toward reduced levels” and the “cytokine levels IL-5, IL-18, IL-1alpha, IL-13, IL-17, IL-12, IP-10” value ([9]; 10 or 160 mg/kg before or 40 or 160 mg/kg after transfusion, terminal blood plasma, FIG. 2) was “either significant pro-inflammatory cytokine reduction or a trend toward reduced levels”. The “VEGF level in 2-hit rat acute lung injury model” value ([9]; FIG. 4) was “downregulate VEGF”, the “pro-inflammatory cytokines (IL-1a, IL-1b, IL-6, IFN-g, IL-17, IL-18, TNFa, RANTES) and chemokines (MCP-1, MIP-1a, MIP-2)” value ([9]; prophylactic 10 or 160 mg/kg, rescue 40 or 160 mg/kg, terminal 4-hour time point, vs untreated 2-hit animals, some significant) was “reduced levels of cytokines and chemokines” and the “cytokine levels IFNgamma, IL-6, IL-2, IL-10, TNFalpha, MCP-1, RANTES, MIP1alpha, IL-1beta, MIP-2” value ([9]; single dose 10 or 160 mg/kg before or 40 or 160 mg/kg after transfusion, terminal blood plasma, FIG. 1) was “either significant pro-inflammatory cytokine reduction or a trend toward reduced levels”. The “binding to MPO” value [10] was “bound PA-dPEG24 in a dose-dependent manner”, the “angiogenesis (sprouting and tube formation)” value [11] was “same results” and the “binding to MAC-1” value [12] was “but not MAC-1”.
